Data from patent US20140031227A1, “HERBICIDAL COMPOSITIONS COMPRISING 4-AMINO-3-CHLORO-5-FLUORO-6-(4-CHLORO-2-FLUORO-3-METHOXYPHENYL) PYRIDINE-2-CARBOXYLIC ACID OR A DERIVATIVE THEREOF AND GLYPHOSATE OR GLUFOSINATE” (DOW AGROSCIENCES LLC, priority 2012, published 2014).
Where a name gives a salt, the structure may show the parent alone.

Key:
Format in all cases: in vivo
[1] = system: DIGSA (Digitaria sanguinalis (L.) Scop., large crabgrass); test: Example IV postemergence foliar-applied mixtures, general weed control, greenhouse: DIGSA; settings: glyphosate DMA salt (Durango DMA) alone, 210 gae/ha
Procedure: (§1) Seeds or nutlets of the desired test plant species were planted in Sun Gro Metro-Mix® 360 planting mixture, which typically has a pH of 6.0 to 6.8 and an organic matter content of about 30 percent, in plastic pots with a surface area of 84.6 square centimeters (cm^2). […] The plants were grown for 7-31 days (d) in a greenhouse with an approximate 15 hour (h) photoperiod which was maintained at about 23-29° C. during the day and 22-28° C. during the night. Nutrients (Peters Excel® 15-5-15 5-Ca 2-Mg) and water were added on a regular basis and supplemental lighting was provided with overhead metal halide 1000-Watt lamps as necessary. The plants were employed for testing when they reached the first, second, or third true leaf stage.
(§2) Treatments consisted of the acid or the benzyl ester of 4-amino-3-chloro-5-fluoro-6-(4-chloro-2-fluoro-3-methoxy-phenyl)pyridine-2-carboxylic acid (Compound A), each formulated as an SC, and various herbicidal components alone and in combination. Forms of compound A were applied on an acid equivalent basis.
(§3) Other herbicidal components were applied on an acid equivalent or active ingredient basis and included the 5-enolpyruvylshikimate-3-phosphate synthase (EPSPS)-inhibiting herbicide, glyphosate dimethylamine salt, formulated as Durango DMA® and the glutamine synthase (GS)-inhibiting herbicide, glufosinate ammonium, formulated as Ignite® 280.
(§4) For treatments comprised of formulated compounds, measured amounts of compounds were placed individually in 25 mL glass vials and diluted in a volume of 1.25% (v/v) Agri-dex crop oil concentrated to obtain 12× stock solutions. […] Application solutions were prepared by adding an appropriate amount of each stock solution (typically 1 mL) and diluted to the appropriate final concentrations with the addition of 10 mL of an aqueous mixture of 1.25% (v/v) Agri-dex crop oil concentrate so that the final spray solutions contained 1.25% (v/v) Agri-dex crop oil concentrate.
(§5) All stock solutions and applications solutions were visually inspected for compound compatibility prior to application. Compound requirements are based upon a 12 mL application volume at a rate of 187 liters per hectare (L/ha). Formulated compounds were applied to the plant material with an overhead Mandel track sprayer equipped with 8002E nozzles calibrated to deliver 187 L/ha over an application area of 0.503 square meters (m^2) at a spray height of 18 to 20 inches (46 to 50 cm) above the average plant canopy height. Control plants were sprayed in the same manner with the solvent blank.
(§6) The treated plants and control plants were placed in a greenhouse as described above and watered by sub-irrigation to prevent wash-off of the test compounds. After approximately 3 weeks, the condition of the test plants as compared with that of the untreated plants was determined visually and scored on a scale of 0 to 100 percent where 0 corresponds to no injury or growth inhibition and 100 corresponds to complete kill.
(§7) Colby's equation was used to determine the herbicidal effects expected from the mixtures (Colby, S. R. 1967. Calculation of the synergistic and antagonistic response of herbicide combinations. Weeds 15:20-22.) .

[2] = system: CHEAL (Chenopodium album L., common lambsquarters); test: Example IV postemergence foliar-applied mixtures, general weed control, greenhouse: CHEAL; settings: glyphosate DMA salt (Durango DMA) alone
Procedure: as §1, §2, §3, §4, §5, §6, §7

[3] = system: DIGSA (Digitaria sanguinalis (L.) Scop., large crabgrass); test: Example I postemergence foliar-applied mixtures, direct seeded rice weeds, greenhouse: DIGSA; settings: glyphosate DMA salt (Durango DMA) alone, 210 gae/ha
Procedure: (§8) Seeds or nutlets of the desired test plant species were planted in a soil matrix prepared by mixing a loam or sandy loam soil (e.g., 28.6 percent silt, 18.8 percent clay, and 52.6 percent sand, with a pH of about 5.8 and an organic matter content of about 1.8 percent) and calcareous grit in an 80 to 20 ratio. The soil matrix was contained in plastic pots with a volume of 1 quart and a surface area of 83.6 square centimeters (cm^2). […] The plants were grown for 8-22 days in a greenhouse with an approximate 14 hr photoperiod which was maintained at about 29° C. during the day and 26° C. during the night. Nutrients (Peters Excel® 15-5-15 5-Ca 2-Mg and iron chelate) were applied in the irrigation solution as needed and water was added on a regular basis. Supplemental lighting was provided with overhead metal halide 1000-Watt lamps as necessary. The plants were employed for testing when they reached the first through fourth true leaf stage.
as §2, with “esters” for “the benzyl ester”, “SC (suspension concentrate),” for “SC,”
(§9) For treatments comprised of formulated compounds, measured amounts of compounds were placed individually in 25 mL glass vials and diluted in a volume of 1.25% (v/v) Agri-Dex® crop oil concentrated to obtain 12× stock solutions. […] Application solutions were prepared by adding an appropriate amount of each stock solution (e.g., 1 mL) and diluted to the appropriate final concentrations with the addition of 10 mL of an aqueous mixture of 1.25% (v/v) crop oil concentrate so that the final spray solutions contained 1.25+/−0.05% (v/v) crop oil concentrate.
(§10) All stock solutions and applications solutions were visually inspected for compound compatibility prior to application. Spray solutions were applied to the plant material with an overhead Mandel track sprayer equipped with a 8002E nozzles calibrated to deliver 187 L/ha over an application area of 0.503 m^2 at a spray height of 18 to 20 inches (46 to 50 cm) above average plant canopy height. Control plants were sprayed in the same manner with the solvent blank.
as §6
(§11) Colby's equation was used to determine the herbicidal effects expected from the mixtures (Colby, S. R. 1967. Calculation of the synergistic and antagonistic response of herbicide combinations. Weeds 15:20-22.).

[4] = system: VIOTR (Viola tricolor L., wild violet); test: Example IV postemergence foliar-applied mixtures, general weed control, greenhouse: VIOTR; settings: glyphosate DMA salt (Durango DMA) alone
Procedure: as §1, §2, §3, §4
All stock solutions and applications solutions were visually inspected for compound compatibility prior to application. Compound requirements are based upon a 12 mL application volume at a rate of 187 liters per hectare (L/ha). […]
as §6, with “kill. […]” for “kill.”

[5] = system: SETFA (Setaria faberi Herrm., giant foxtail); test: Example IV postemergence foliar-applied mixtures, general weed control, greenhouse: SETFA; settings: glyphosate DMA salt (Durango DMA) alone
Procedure: as §1, §2, §3, §4, §5, §6, §7

[6] = system: SORHA (Sorghum halepense (L.) Pers., johnsongrass); test: Example III postemergence foliar-applied mixtures, row crop weeds (corn, soybean), greenhouse: SORHA; settings: glyphosate DMA salt (Durango DMA) alone
Procedure: as §1, with “a soil matrix prepared by mixing a loam or sandy loam soil (e.g., 43 percent silt, 19 percent clay, and 38 percent sand, with” for “Sun Gro Metro-Mix® 360 planting mixture, which typically has”, “about 8.1” for “6.0 to 6.8”, “1.5 percent) and calcareous grit in an 80 to 20 ratio. The soil matrix was contained” for “30 percent,”, “square centimters (cm^2) and a volume of 560 cubic” for “square”, “(cm^3).” for “(cm^2).”
Treatments consisted of the acid or esters of 4-amino-3-chloro-5-fluoro-6-(4-chloro-2-fluoro-3-methoxy-phenyl)pyridine-2-carboxylic acid (Compound A), each formulated as an
SC (suspension concentrate), and various herbicidal components alone and in combination. Forms of compound A were applied on an acid equivalent basis.
as §3
For treatments comprised of formulated compounds, measured amounts of compounds were placed individually in 25 mL glass vials and diluted in a volume of 1.5% (v/v) Agri-dex® crop oil concentrate to obtain 6× stock solutions. […] Application solutions were prepared by adding an appropriate amount of each stock solution (typically 2 mL) and diluted to the appropriate final concentrations with the addition of an aqueous mixture of 1.5% (v/v) crop oil concentrate and water so that the final spray solutions contained 1.25% (v/v) crop oil concentrate.
as §5
as §6, with “2” for “3”
The following equation was used to calculate the expected activity of mixtures containing two active ingredients, A and B: […]

[7] = system: IPOHE (Ipomoea hederacea Jacq., ivyleaf morningglory); test: Example I postemergence foliar-applied mixtures, direct seeded rice weeds, greenhouse: IPOHE
Procedure: as §8
as §2, with “esters” for “the benzyl ester”, “SC (suspension concentrate),” for “SC,”
as §9, §10, §6, §11

[8] = system: ECHCG (Echinochloa crusgalli (L.) Beauv., barnyardgrass); test: Example I postemergence foliar-applied mixtures, direct seeded rice weeds, greenhouse: ECHCG; settings: Compound A n-Butyl Ester alone, 16 gae/ha
Procedure: as §8
as §2, with “esters” for “the benzyl ester”, “SC (suspension concentrate),” for “SC,”
as §9, §10, §6, §11

[9] = system: LEFCH (Leptochloa chinensis (L.) Nees, Chinese sprangletop); test: Example I postemergence foliar-applied mixtures, direct seeded rice weeds, greenhouse: LEFCH; settings: Compound A n-Butyl Ester alone, 16 gae/ha
Procedure: as §8
as §2, with “esters” for “the benzyl ester”, “SC (suspension concentrate),” for “SC,”
as §9, §10, §6, §11

| Compound | Visual Weed Control (%) - 18 DAA DIGSA Obs [1] | Visual Weed Control (%) - 18 DAA CHEAL Obs ([2]; 420 gae/ha) | Visual Weed Control (%) - 18 DAA CHEAL Obs ([2]; 840 gae/ha) | Visual Weed Control (%) - 21 DAA DIGSA Obs [3] | Visual Weed Control (%) - 18 DAA VIOTR Obs ([4]; 210 gae/ha) | Visual Weed Control (%) - 18 DAA VIOTR Obs ([4]; 420 gae/ha) | VisualWeed Control (%) - 18 DAA SETFA Obs ([5]; 210 gae/ha) | VisualWeed Control (%) - 18 DAA SETFA Obs ([5]; 420 gae/ha) | Visual Weed Control (%) - 16 DAA SORHA Obs ([6]; 105 gae/ha) | Visual Weed Control (%) - 16 DAA SORHA Obs ([6]; 210 gae/ha) | Visual Weed Control (%) - 16 DAA SORHA Obs ([6]; 420 gae/ha) | Visual Weed Control (%) - 21 DAA IPOHE Obs ([7]; glyphosate DMA salt (Durango DMA) alone, 105 gae/ha) | Visual Weed Control (%) - 20 DAA ECHCG Obs [8] | Visual Weed Control (%) - 20 DAA LEFCH Obs [9] | Visual Weed Control (%) - 20 DAA IPOHE Obs ([7]; Compound A n-Butyl Ester alone, 16 gae/ha) |
| --- | --- | --- | --- | --- | --- | --- | --- | --- | --- | --- | --- | --- | --- | --- | --- |
| O=C(O)CNCP(=O)(O)O [Glyphosate DMA Salt, N-(phosphonomethyl)glycine, reference compound] | 40% | 0% | 30% | 75% | 60% | 85% | 10% | 90% | 0% | 10% | 25% | 30% | – | – | – |
| CCCCOC(=O)c1nc(-c2ccc(Cl)c(OC)c2F)c(F)c(N)c1Cl [Compound A n-Butyl Ester] | – | – | – | – | – | – | – | – | – | – | – | – | 65% | 10% | 15% |
